Reference: ChEMBL document CHEMBL5346943, “Discovery and Structural Optimization of Novel Quinolone Derivatives as Potent Irreversible Pan-Fibroblast Growth Factor Receptor Inhibitors for Treating Solid Tumors” (J Med Chem, 2023)

Assays:
[1] = tested on: Huh-7; test: Antiproliferative activity against human Huh-7 cells incubated for 72 hrs by Cell counting kit 8 method; type: functional, cell-based; conditions: Huh-7, 72 h
[2] = target: T1, Fibroblast growth factor receptor 4 (Homo sapiens, UniProt P22455); test: Inhibition of FGFR4 (unknown origin) at 100 nM incubated for 10 mins followed by substrate addition measured after 60 mins by ADP-Glo luminescence assay relative to control; conditions: time 70.0 min
Target sequence in this assay (P22455 22-802 limits assumed): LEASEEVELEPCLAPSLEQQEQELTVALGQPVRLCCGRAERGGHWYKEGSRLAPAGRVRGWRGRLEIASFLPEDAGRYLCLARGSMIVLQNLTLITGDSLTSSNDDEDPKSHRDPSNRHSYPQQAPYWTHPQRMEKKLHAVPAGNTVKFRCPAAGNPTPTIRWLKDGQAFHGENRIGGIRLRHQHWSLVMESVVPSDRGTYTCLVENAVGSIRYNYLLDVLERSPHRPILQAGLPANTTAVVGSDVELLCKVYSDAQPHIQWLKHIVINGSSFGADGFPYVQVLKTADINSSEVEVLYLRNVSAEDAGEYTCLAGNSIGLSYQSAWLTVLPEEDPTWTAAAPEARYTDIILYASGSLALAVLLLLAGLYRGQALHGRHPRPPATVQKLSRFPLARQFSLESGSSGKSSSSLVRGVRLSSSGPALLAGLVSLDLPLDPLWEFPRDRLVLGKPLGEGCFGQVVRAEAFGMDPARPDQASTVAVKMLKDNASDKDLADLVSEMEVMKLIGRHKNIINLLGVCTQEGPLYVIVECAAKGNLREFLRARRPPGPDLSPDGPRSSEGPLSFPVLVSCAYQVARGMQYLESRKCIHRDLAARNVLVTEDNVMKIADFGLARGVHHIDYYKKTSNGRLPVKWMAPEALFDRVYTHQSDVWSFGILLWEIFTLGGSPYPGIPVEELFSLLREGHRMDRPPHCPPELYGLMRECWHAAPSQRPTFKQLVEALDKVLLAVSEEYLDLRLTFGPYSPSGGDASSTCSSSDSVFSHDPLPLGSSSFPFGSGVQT

[3] = tested on: Hep 3B2; test: Antiproliferative activity against human Hep3B cells incubated for 72 hrs by Cell counting kit 8 method; type: functional, cell-based
[4] = target: T1, Fibroblast growth factor receptor 4; test: Inhibition of FGFR4 (unknown origin) incubated for 10 mins followed by substrate addition measured after 60 mins by ADP-Glo luminescence assay
Target sequence in this assay (P22455 whole entry): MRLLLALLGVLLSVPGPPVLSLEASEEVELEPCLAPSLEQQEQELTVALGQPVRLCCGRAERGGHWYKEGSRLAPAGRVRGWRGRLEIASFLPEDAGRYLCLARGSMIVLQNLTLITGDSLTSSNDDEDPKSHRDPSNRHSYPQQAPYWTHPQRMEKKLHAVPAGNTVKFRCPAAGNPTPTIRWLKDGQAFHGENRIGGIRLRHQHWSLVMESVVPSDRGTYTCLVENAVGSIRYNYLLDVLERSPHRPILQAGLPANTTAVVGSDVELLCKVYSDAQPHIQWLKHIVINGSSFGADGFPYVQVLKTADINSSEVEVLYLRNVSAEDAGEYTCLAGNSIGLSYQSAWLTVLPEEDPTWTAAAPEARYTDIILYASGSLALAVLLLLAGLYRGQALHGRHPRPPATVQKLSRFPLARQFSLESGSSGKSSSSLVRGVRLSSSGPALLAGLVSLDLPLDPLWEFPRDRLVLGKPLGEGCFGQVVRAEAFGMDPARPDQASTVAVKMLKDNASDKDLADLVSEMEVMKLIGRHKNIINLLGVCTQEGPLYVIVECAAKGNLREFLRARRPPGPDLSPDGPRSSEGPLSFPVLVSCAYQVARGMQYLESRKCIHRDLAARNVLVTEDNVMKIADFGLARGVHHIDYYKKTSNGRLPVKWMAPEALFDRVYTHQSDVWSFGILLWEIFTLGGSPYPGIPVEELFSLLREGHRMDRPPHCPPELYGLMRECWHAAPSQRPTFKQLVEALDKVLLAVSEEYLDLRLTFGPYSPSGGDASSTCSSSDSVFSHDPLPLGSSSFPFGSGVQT

[5] = Microsomal stability in human liver microsomes assessed as intrinsic clearance preincubated for 10 mins followed by NADPH addition measured upto 60 mins by LC-MS/MS analysis; type: ADME, Microsome; conditions: time < 70 min, read-out: CLH
[6] = target: Fibroblast growth factor receptor 1 (Homo sapiens, UniProt P11362); test: Inhibition of FGFR1 (unknown origin) incubated for 10 mins followed by substrate addition measured after 60 mins by ADP-Glo luminescence assay
[7] = Permeability of the compound at 10 uM preincubated in acceptor compartment for 16 hrs followed by 16 hrs incubation in donor compartment by PAMPA based LC-MS/MS analysis; type: ADME; conditions: time 32 hrs, read-out: permeability
[8] = Microsomal stability in human liver microsomes assessed as half life preincubated for 10 mins followed by NADPH addition measured upto 60 mins by LC-MS/MS analysis; type: ADME, Microsome; conditions: time < 70 min
[9] = target: Fibroblast growth factor receptor 2 (Homo sapiens, UniProt P21802); test: Inhibition of FGFR2 (unknown origin) incubated for 10 mins followed by substrate addition measured after 60 mins by ADP-Glo luminescence assay
[10] = Ionization constant, pKa of the compound in PBS buffer at pH 1.42 to 12.33 by electrochemical method; type: physicochemical

Sequence of Fibroblast growth factor receptor 2 (P21802 whole entry): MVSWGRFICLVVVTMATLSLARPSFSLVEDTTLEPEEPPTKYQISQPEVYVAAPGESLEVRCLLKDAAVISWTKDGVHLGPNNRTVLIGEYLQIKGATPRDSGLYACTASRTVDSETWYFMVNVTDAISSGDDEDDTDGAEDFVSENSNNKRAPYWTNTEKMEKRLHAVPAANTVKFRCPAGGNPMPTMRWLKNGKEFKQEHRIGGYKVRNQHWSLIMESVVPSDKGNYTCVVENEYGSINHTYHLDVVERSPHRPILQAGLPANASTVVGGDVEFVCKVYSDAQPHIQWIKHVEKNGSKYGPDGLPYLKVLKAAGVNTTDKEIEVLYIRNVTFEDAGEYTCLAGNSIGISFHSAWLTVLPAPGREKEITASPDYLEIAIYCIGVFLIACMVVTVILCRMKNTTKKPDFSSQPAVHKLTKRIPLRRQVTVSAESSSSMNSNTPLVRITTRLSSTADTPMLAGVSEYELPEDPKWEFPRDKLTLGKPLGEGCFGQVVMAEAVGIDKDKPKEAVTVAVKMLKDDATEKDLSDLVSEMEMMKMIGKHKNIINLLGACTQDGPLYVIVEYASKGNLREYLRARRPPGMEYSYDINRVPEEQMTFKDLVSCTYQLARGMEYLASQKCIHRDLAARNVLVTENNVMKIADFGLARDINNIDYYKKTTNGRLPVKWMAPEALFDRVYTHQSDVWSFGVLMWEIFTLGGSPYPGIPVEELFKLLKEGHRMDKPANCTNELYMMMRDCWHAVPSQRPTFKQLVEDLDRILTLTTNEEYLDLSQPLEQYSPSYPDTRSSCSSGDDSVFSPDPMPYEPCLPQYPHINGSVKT
Sequence of Fibroblast growth factor receptor 1 (P11362 whole entry): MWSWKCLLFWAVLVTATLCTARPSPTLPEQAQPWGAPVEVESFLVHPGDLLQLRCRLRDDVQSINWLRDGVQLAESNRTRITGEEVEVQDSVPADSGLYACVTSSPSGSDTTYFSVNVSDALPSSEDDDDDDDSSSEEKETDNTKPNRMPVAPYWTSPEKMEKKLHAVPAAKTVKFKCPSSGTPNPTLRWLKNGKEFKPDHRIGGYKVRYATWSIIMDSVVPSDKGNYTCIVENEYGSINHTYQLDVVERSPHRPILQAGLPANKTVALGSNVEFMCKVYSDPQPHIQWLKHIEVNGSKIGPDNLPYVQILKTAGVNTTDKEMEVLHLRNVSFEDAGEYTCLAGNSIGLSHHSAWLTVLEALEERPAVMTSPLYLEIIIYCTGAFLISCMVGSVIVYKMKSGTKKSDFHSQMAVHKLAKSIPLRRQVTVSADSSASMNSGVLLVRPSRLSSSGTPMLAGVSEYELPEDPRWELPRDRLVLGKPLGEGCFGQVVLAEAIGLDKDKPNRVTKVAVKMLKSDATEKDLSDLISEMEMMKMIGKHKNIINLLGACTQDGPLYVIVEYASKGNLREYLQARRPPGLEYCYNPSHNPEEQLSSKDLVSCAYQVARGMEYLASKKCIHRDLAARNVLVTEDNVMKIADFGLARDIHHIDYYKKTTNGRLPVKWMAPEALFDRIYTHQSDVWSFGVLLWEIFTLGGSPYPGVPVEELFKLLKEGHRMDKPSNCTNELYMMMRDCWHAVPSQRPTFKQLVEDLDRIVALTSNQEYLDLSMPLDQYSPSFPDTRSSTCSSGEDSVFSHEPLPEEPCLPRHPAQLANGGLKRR

IC50 [1] [nM] | inhibition [2] [%] | IC50 [4] [nM] | Structure (SMILES) | IC50 [3] [nM] | further results
2210 | 1.1 | – | C=CC(=O)N1CCC(c2cc3c(Oc4ccc(NC(=O)Cc5ccccc5)cc4F)ccnc3cc2OC)CC1 | 1350 | –
1710 | – | – | C=CC(=O)N1CCC(c2cc3c(Oc4ccc(NC(=O)c5c(C)n(C)n(-c6ccccc6)c5=O)cc4F)ccnc3cc2OC)CC1 | 450 | –
> 10000 | 17.1 | – | C=CC(=O)N1CCC(c2cc3c(Nc4ccc(OCc5ccccn5)c(Cl)c4)ccnc3cc2OC)CC1 | 4020 | –
384 | 36.5 | – | C=CC(=O)N1CCC(c2cc3c(Oc4ccc(NC(=O)Nc5cc(C)on5)c(Cl)c4)ccnc3cc2OC)CC1 | 664 | –
216 | 20.6 | – | C=CC(=O)N1CCC(c2cc3c(Oc4cc5cc(C)[nH]c5cc4F)ccnc3cc2OC)CC1 | 313 | –
356 | 10.7 | – | C=CC(=O)N1CCC(c2cc3c(Oc4ccc(NC(=O)NC5CC5)c(OCC)c4)ccnc3cc2OC)CC1 | 509 | –
71.3 | – | 15 | C=CC(=O)N1CCC(c2cc3c(Oc4ccc(NC(=O)NC5CC5)c(Cl)c4)ncnc3cc2OC)CC1 | 72.6 | –
8830 | 15 | – | C=CC(=O)N1CCC(c2cc3c(Oc4ccc(NC(=O)NC5CC5)c(Cl)c4)c(C#N)cnc3cc2OC)CC1 | > 10000 | –
37.8 | – | 17 | C=CC(=O)N1CCC(c2cc3c(Oc4ccc(NC(=O)NC5CC5)c(Cl)c4)ccnc3cc2OC(C)C)CC1 | 63.6 | –
103 | – | 12.4 | COc1cc2nccc(Oc3ccc(NC(=O)NC4CC4)c(Cl)c3)c2cc1C1CCN(C(=O)/C=C/C(F)(F)F)CC1 | > 10000 | –
> 10000 | – | 4.65 | C=CS(=O)(=O)N1CC=C(c2cc3c(Oc4ccc(NC(=O)NC5CC5)c(Cl)c4)ccnc3cc2OC)CC1 | 5080 | –
851 | – | – | COc1cc2nccc(Oc3ccc(NC(=O)NC4CC4)c(Cl)c3)c2cc1C(N)=O [LENVATINIB] | 696 | microsomal CLint [5]: 74.1 µL/min/mg; IC50 [6]: 66 nM; Papp at 16 h, 10 µM [7]: 9.27 ×10⁻⁶ cm/s; half-life [8]: 22.4 min; IC50 [9]: 11 nM; pKa [10]: 5.27
21.1 | – | 18 | C=CC(=O)N1CCC(c2cc3c(Oc4ccc(NC(=O)NC5CC5)c(F)c4)ccnc3cc2OC)CC1 | 30.2 | –
32.9 | 40.7 | – | C=CC(=O)N1CCC(c2cc3c(Oc4ccc5c(C(=O)NC)c(C)oc5c4)ccnc3cc2OC)CC1 | 41 | –
17.8 | – | 7.04 | [2H]C([2H])([2H])Oc1cc2nccc(Oc3ccc(NC(=O)NC4CC4)c(Cl)c3)c2cc1C1CCN(C(=O)C=C)CC1 | 72.6 | –
